This experiment has as its system P388. As to the kind of experiment: Cytotoxicity against mouse P388 cells. It is filed as functional, cell-based.

Here are results for four molecules from ChEMBL document CHEMBL1158216, “Globostellatic acids A-D, new cytotoxic isomalabaricane triterpenes from the marine sponge Stelletta globostellata” (J Nat Prod, 1996).

Consider `CC(=O)O[C@@H]1CC[C@@]2(C)[C@@H](CC[C@]3(C)/C(=C(\C)C(=O)/C=C/C(C)=C/C=C/C(C)(C)O)C(=O)C[C@@H]23)[C@@]1(C)C(=O)[O-].[Na+]` [GLOBOSTELLATIC ACID A], for which half-maximal inhibition (IC50) required 0.1 µg/mL. Take `COC(/C=C/C(C)(C)O)/C(C)=C/C=C/C(C)=C1\C(=O)C[C@H]2[C@@]3(C)CC[C@@H](OC(C)=O)[C@](C)(C(=O)[O-])[C@@H]3CC[C@]12C.[Na+]` (some centres undefined) [GLOBOSTELLATIC ACID B]: it took 0.1 µg/mL to reach half-maximal inhibition (IC50). Under `COC(/C=C/C(C)=C/C=C/C(C)=C1\C(=O)C[C@H]2[C@@]3(C)CC[C@@H](OC(C)=O)[C@](C)(C(=O)[O-])[C@@H]3CC[C@]12C)C(C)(C)O.[Na+]` (some centres undefined) [GLOBOSTELLATIC ACID C] stands 0.46 µg/mL; under `COC(/C=C/C(C)=C/C=C/C(C)=C1\C(=O)C[C@H]2[C@@]3(C)CC[C@@H](O)[C@](C)(C(=O)[O-])[C@@H]3CC[C@]12C)C(C)(C)O.[Na+]` (some centres undefined) [GLOBOSTELLATIC ACID D], 0.1 µg/mL.
